In publication PMC4376353 (Angewandte Chemie (International ed. in English), 2015):

Columns and labels:
LanGT2 [1] = biological target: T1, LanGT2 (Streptomyces cyanogenus, UniProt Q9ZGC0); assay: X-ray crystal structure; type: binding; conditions: non-hydrolyzable substrate analogue; nucleotide-sugar site; 1.85 Å
T1 sequence (Q9ZGC0 1-373): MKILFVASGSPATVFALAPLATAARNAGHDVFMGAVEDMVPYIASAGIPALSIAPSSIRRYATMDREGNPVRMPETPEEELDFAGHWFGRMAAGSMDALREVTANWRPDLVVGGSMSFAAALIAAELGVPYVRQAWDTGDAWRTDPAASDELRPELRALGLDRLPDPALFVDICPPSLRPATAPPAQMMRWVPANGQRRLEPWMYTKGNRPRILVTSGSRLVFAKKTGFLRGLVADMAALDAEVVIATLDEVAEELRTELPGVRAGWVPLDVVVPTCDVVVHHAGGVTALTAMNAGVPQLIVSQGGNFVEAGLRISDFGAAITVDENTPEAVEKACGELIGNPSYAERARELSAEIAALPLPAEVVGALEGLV

LanGT2 [2] = biological target: T1, LanGT2; assay: X-ray crystal structure; type: binding; conditions: nucleotide-sugar site; TDP-olivose had broken down, product TDP bound

| Structure (SMILES) | X-ray crystal structure (crystal soaking) (LanGT2 [1]) | X-ray crystal structure (crystals treated with TDP-olivose) (LanGT2 [2]) |
| --- | --- | --- |
| Cc1cn([C@H]2C[C@H](O)[C@@H](COP(=O)(O)OP(=O)(O)O[C@@H]3C[C@@H](O)[C@H](O)[C@@H](C)C3)O2)c(=O)[nH]c1=O [compound 8, TDP-carba-D-olivose] | LanGT2 crystals were soaked with the synthetic TDP-carba-D-olivose (TcO) |  |
| Cc1cn([C@H]2C[C@H](O)[C@@H](COP(=O)(O)OP(=O)(O)O)O2)c(=O)[nH]c1=O [TDP] |  | thus resulting in structures that invariably only had the product TDP bound |
